“And” between values parts separate entries of the source, which are not always exact repeats. Equal values may be shown once.
Key:
Assay type in all cases: in vivo, rat
male Sprague Dawley rats [1] = assay: Radiolabeled phosphate absorption in rats, Studies 1-3 (plasma radioactivity); conditions: for Absorption (vs. vehicle control): mean ± SEM
Procedure: Effect of Example 2 in Combination with an NPT2b Inhibitor (Compound A) on Phosphate Absorption in Rats
NPT2b inhibitor dosing solutions: Compound A and poly-1-vinylpyrrolidone-co-vinyl acetate (PVP-VA, Sigma-Aldrich) are weighed into a bottle at a ratio of 30% Compound A and 70% PVP-VA by weight. A clear yellow solution is prepared by diluting the mixture in MeOH followed by the addition of 2 mol NaOH per mol Compound A using 5 N NaOH. The solution is spray dried by a stream of hot nitrogen and the solid dispersion powder is collected and then further dried in a vacuum oven. Doses for the sprayed dried solid dispersion (SDD) are expressed as active pharmaceutical ingredient (API) throughout.
To make the Compound A dosing solution, an appropriate amount of Compound A SDD is weighed in a vial and dissolved in water (10 mL/kg dosing volume). […] The subsequent solutions for lower doses are prepared by serial dilutions with water. PVP-VA at 7 mg/mL is used as a vehicle control.
NHE3 inhibitor dosing solutions: To make the Example 2 dosing solution, an appropriate amount of the compound is weighed in a vial and dissolved in 1% HEC (10 mL/kg dosing volume). […] The subsequent solutions for lower doses are prepared by serial dilutions with HEC.
To make the radiolabeled phosphate dosing solution, a 16.25 mM Na2HPO4, 0.9% saline, pH 7.4 solution is prepared and filtered using a sterile, 0.22 μm, polyethersulfone, Millex-GP Syringe Filter Unit (EMD Millipore). Radioactive phosphate (H3^33PO4, Perkin Elmer) is added at about 2.5 μCi per mL of the solution and filtered again.
Three separate studies are performed. In these studies, male Sprague Dawley rats, are randomized into groups with approximately equal mean body weights. Following an overnight fast, all the animals are dosed at 10 mL/kg with either vehicle, varying doses of Compound A (Study 1), varying doses of Example 2 (Study 2) or 1.2 mg/kg Compound A and varying doses of Example 2 (Study 3). 15 min later, radiolabeled phosphate is orally dosed in a 2 mL volume. 15 min later, blood is collected and plasma is prepared. Radioactivity (dpm) in 50 μL plasma is measured by scintillation counting and is used to calculate phosphate absorption. The results are normalized with the vehicle controls representing 100% absorption. The curves are fitted with nonlinear regression with variable slope using GraphPad Prism 6 to calculate the ED50 and Emax given in Table 7. […] No curve fit was performed for Compound A alone in Study 1.

male Sprague Dawley rats [2] = assay: Phosphate absorption 15 min after radiolabeled phosphate (Example 2, Compound A, combination); conditions: Compound A 10 mg/kg, plasma 15 min after radiolabeled phosphate, P=0.013 versus vehicle control
Procedure: Effect of Example 2 in Combination with an NPT2b Inhibitor (Compound A) on Phosphate Absorption and Intestinal Phosphate Retention in Rats
(§1) The purpose of this study is to investigate in rats the effect of Example 2, Compound A, and an Example 2/Compound A combination on phosphate absorption 15 min after dosing the compounds and the phosphate retained in the intestine 4.25 h after dosing the compounds. The latter is a measure of the oral phosphate load which is absorbed over an extended period.
(§2) Two vehicles are used in this study: 1) 1% HEC and 2) 0.46% poly-1-vinylpyrrolidone-co-vinyl acetate in water (PVP-VA vehicle). The vehicle control group in this study receives a 1:1 combination of the two vehicles.
The Example 2, Compound A and phosphate dosing solutions are prepared similarly as described above, except the doses are 0.4 mg/kg for Example 2 and 10 mg/kg for Compound A and they are prepared at a concentration where they would be dosed in a 5 mL/kg volume. […]
Male Sprague Dawley rats are fasted 4 h and then administered appropriate vehicles, 10 mg/kg Compound A, 0.4 mg/kg Example 2, or a combination of both compounds. […] Radioactivity in plasma is measured by scintillation counting and used to calculate the inhibition of phosphate absorption. […] Statistical significance is determined by ANOVA with a Dunnett's comparison to the Example 2/Compound A combination using JMP 12.1.

male Sprague Dawley rats [3] = assay: Intestinal phosphate retention: percent radiolabeled dose recovered in gastrointestinal tract; conditions: Compound A 10 mg/kg, 4 h after radiolabeled phosphate
Procedure: as §1, §2
The Example 2, Compound A and phosphate dosing solutions are prepared similarly as described above, except the doses are 0.4 mg/kg for Example 2 and 10 mg/kg for Compound A and they are prepared at a concentration where they would be dosed in a 5 mL/kg volume. The Example 2 and Compound A alone groups are mixed 1:1 with the vehicle of the other compound, while the Compound A and Example 2 are mixed 1:1 prior to dosing. The final dosing volume is 10 mL/kg in all cases.
4 h after the radiolabeled phosphate solution is dosed, stomach, small intestine, large intestine, and feces are collected, weighed and digested with 1N NaOH overnight at 37° C. Radioactivity in each fraction is measured by scintillation counting.
The percent dose recovered in gastrointestinal tract is defined as radioactivity recovered in stomach, small intestine, large intestine and feces compared to the amount dosed. Data is presented as mean±SEM with animal numbers equal to 8 for the groups. Statistical significance is determined by ANOVA with a Dunnett's comparison to the Example 2/Compound A combination using JMP 12.1.
The percent dose recovered in gastrointestinal tract data is further analyzed by a two-way ANOVA in JMP 12.1 to test for additivity of the effects of Example 2 and Compound A on inhibiting phosphate absorption. […] That is, the inhibitory effect of the combination is greater than the sum of the individual compound effects.

## CC1(C)CN(C(=O)NCCCCO)CCN1Cc1cccc(C(=O)Nc2sc3c(c2C(=O)Nc2cc(F)c(CCc4ccc(C(=O)O)cc4)c(F)c2)CCCC3)c1 [Compound A, reference compound]
Male Sprague Dawley rats [1]; Study 1, rats, Compound A 0.01 mg/kg
  Absorption (vs. vehicle control): 94.39 ± 7.88%
Male Sprague Dawley rats [1]; Study 1, rats, Compound A 0.1 mg/kg
  Absorption (vs. vehicle control): 87.61 ± 6.08%
Male Sprague Dawley rats [1]; Study 1, rats, Compound A 1 mg/kg
  Absorption (vs. vehicle control): 87.64 ± 7.26%
Male Sprague Dawley rats [1]; Study 1, rats, Compound A 10 mg/kg
  Absorption (vs. vehicle control): 81.53 ± 5.50%
Male Sprague Dawley rats [1]; Study 1, rats, Compound A highest dose tested (10 mg/kg)
  % Inhibition at the highest dose (phosphate absorption): 18%
Male Sprague Dawley rats [1]; Study 3, rats, Vehicle + Compound A 1.2 mg/kg
  Absorption (vs. vehicle control): 71.00 ± 11.63%
Male Sprague Dawley rats [2]
  Inhibition of phosphate absorption: 35%
Male Sprague Dawley rats [3]
  Percent Dose Recovered, Feces: <0.1%
Male Sprague Dawley rats [3]; mean ± SEM
  Percent Dose Recovered, Large Intestine: 18.43 ± 2.03%
  Percent Dose Recovered, Small Intestine: 8.98 ± 0.48%
  Percent Dose Recovered, Stomach: 4.86 ± 1.13%
Male Sprague Dawley rats [3]; mean ± SEM, 10 mg/kg
  Percent Dose Recovered, Total: 32% and 32.27 ± 1.38%

Source: US12428377B2, “Sodium-hydrogen exchanger 3 inhibitor compounds” (Eli Lilly and Company, priority 2019, dated 2025)
